Data on 14 molecules can be found in patent US5179107A, “Antiviral quinolinone compounds” (Schering Corporation, priority 1991, dated 1993).

Series [1] is described as follows: Cytotoxicity, ^3 H-LEU assay (HeLa cell translation). The following applies: human, hela cells, inhibition of cellular translational activity, overnight/24 hrs incubation, read-out: CYTOTOXICITY ^3 H-LEU ASSAY IC50. The class given is cell-based. The protocol: (§1) HeLa and Vero cell cultures were maintained in Eagles Minimal Essential Medium which was supplemented with glutamine, penicillin, streptomycin and 10% fetal calf serum (10% EMEM). Stock cultures of HSV-2 (strain MS available from ATCC VR-540) were grown in and harvested from Vero cells. Viral stocks were titered in Vero cells according to established procedures.
(§2) HeLa cells were treated with inhibitory compound for 24 hrs, after which levels of translational activity were assayed.
(§3) For assay of translational activity, HeLa cultures were grown to 80% confluency in 96 well microtiter plates, treated with appropriate concentrations of compound in 2% EMEM during an overnight incubation at 37° C., then rinsed with HBSS and overlaid with […] of 2% EMEM containing 8 uCi of tritiated leucine (^3 H-LEU, […], Amersham Corp., Arlington Heights Ill.). After a 1 hr incubation at 36.5° C., the cells were rinsed twice with phosphate buffered saline (PBS) and lysed in 400 ul/well of 1×PBS, 0.5% sodium dodecyl sulphate (SDS). After a 10 min incubation at 36.5° C., the contents of the well were transferred to a well in a Millititer HA microfiltration plate (Millipore Corp., Bedford, Mass.). The TCA insoluble proteins were precipitated onto the filter disc by a 10 min fixation with 5% TCA, followed by filtration under vacuum and three 10 minute rinses with 95% ethanol. The filters were dried at room temperature, cut from the milltitier plate and transferred to scintillation vials. TCA precipitable counts were assayed in 5 ml of Scintisol (Isolab, Akron, Ohio). The inhibitory activity of a compound was plotted versus the concentration and an IC50 value (that concentration of the compound required to decrease cellular translational activity by 50%) was derived for each compound.

The test system of a further series is HSV-2 (strain MS). Description: HSV-β-GAL assay: transient expression of beta galactosidase in pON 245^ori- transfected HeLa cells infected with HSV-2. The following applies: multiple numbers = additional tests; for IC50: Human alphaherpesvirus 2, HeLa, 24 h. The class given is cell-based. The protocol:
as §1
Plasmid pON 245^ori- contains the promoter of the HSV-1 thymidine kinase (tk) gene located immediately 5' of the E. coli lac Z gene. In this arrangement, the tk promoter controls transcription from the bacterial gene in transient expression assays. Additionally, an SV40 polyadenylation signal is present at the 3' end of the lac Z gene to allow for the efficient translation of the mRNA in eucaryotic cells. The expression of beta galactosidase in a transient assay using pON 245^ori- is dependent upon superinfection of the transfected cells with HSV. […] For example, see U.S. application Ser. No. 07/435,491 filed Sep. 5, 1989, the disclosure of which is incorporated herein by reference thereto.
HeLa cells were seeded into 96 well microtiter plates and allowed to grow to 80% confluency (approximately 35000 cells/well). One half microgram of plasmid pON 245^ori- DNA was introduced into the cells of each well by the […] precipitation technique (Grahman and Van der Eb, 1973). Four to six hours later, the cells were rinsed with Hank's Balanced Salt Solution (HBSS), overlaid with 10% EMEM and incubated at 37° C. At 24 hrs post-transfection, cells were rinsed, overlaid with 10% EMEM again and re-incubated at 37° C. At 48 hrs. post-transfection, cells were rinsed and overlaid with either EMEM containing 2% fetal calf serum (2% EMEM), 2% EMEM containing HSV-2 (strain MS, Multiplicity of infection [moi]=5 pfu/cell) or 2% EMEM containing HSV-2 and the appropriate concentration of the compound to be tested. Twenty-four hrs later, the cells were harvested and assayed for beta galactosidase activity as described below.
(§4) All determinations of beta galactosidase activity were performed in 96 well microtiter plates. The intracellular level of beta galactosidase activity in each well was determined from cell lysates of the monolayer cultures. […] The generation of fluorescent product was quantified on a Microfluor microfluorimeter (Dynatech) after addition of 0.1M glycine, pH 10.3 (Spaete and Mocarski, 1985). The inhibitory activity of a compound was plotted versus the concentration and an IC50 value (the concentration of compound required to reduce beta glactosidase expression by 50%) was obtained for each compound tested.
The in-vitro anti-HSV activity of compounds of this invention is set forth in Table I. More than one number for a particular entry indicates the results for additional tests.

The subject of another series is CMV (strain Towne). Description: CMV-β-Gal assay: transient expression of beta galactosidase, plasmid pON249 ΔNH3, in human foreskin fibroblasts. Format: cell-based. The following applies: multiple numbers = additional tests; for ANTI-CMV ACTIVITY CMV-β-Gal ASSAY IC50: CMV strain Towne, human foreskin fibroblasts; for IC50: Human betaherpesvirus 5, Fibroblast, read-out: ANTI-CMV ACTIVITY CMV-β-Gal ASSAY IC50, CMV strain Towne, human foreskin fibroblasts. The protocol: as §4
The in-vitro CMV activity of the compounds represented by Formulas 1.1 and 1.3 were determined using the following CMV assay.
Human foreskin fibroblast (HHF) cell cultures were grown in 10% EMEM. CMV (strain Towne received from Stanford University) was grown and titered in HHF cells. Plasmids pON249 ΔNH3, containing CMV promoter genes, were used in the β-galactosidase transient expression assay as shown above.
More than one number for a particular entry indicates the results of additional tests.

Series [2] in a line: CMV toxicity assay, ^3 H-LEU assay in HFF cells. The class given is cell-based. The following applies: human, read-out: CYTOTOXICITY ^3 H-LEU ASSAY IC50 (CMV toxicity assay).
In the next series the test system is HeLa cells. In words: Cytotoxicity, ^3 H-LEU assay (HeLa cell translation). Particulars: inhibition of cellular translational activity, overnight/24 hrs incubation, 1440 min. The class given is cell-based. The protocol:
as §1, §2, §3

The subject of the next series is HSV-2, strain MS. In words: Prophylactic guinea pig model of HSV infection (genital lesions, Maximum Lesion scores). The class given is in vivo. Particulars: subcutaneous, 60 mg per kg, every eight hours for 10 days, from 24 hrs prior to infection. The protocol:
The in vivo assessment of anti-HSV efficacy was determined in the prophylactic guinea pig model of HSV infection described by Stansberry et al (1982). Dosing of guinea pigs was comprised of an initial treatment with test compound given 24 hrs prior to virus infection and subsequent administration of the compound every eight hours (T.I.D.) for a total of 10 days. Test compounds were administered subcutaneously in 0.5% buffered methyl cellulose at a dose of 60 mg per kg body weight of the animal. Animals were monitored daily for the developement of genital lesions and neurological symptomology, both of which were recorded and compared to the results obtained with parallel groups which received placebo or acyclovir treatment. Efficacy was evaluated for each compound by scoring the ability of the compound to ameliorate genital lesions produced by infection with HSV-2, strain MS, expressed as Maximum Lesion scores (MLS) on a scale of 1 (least lesions) to 4 (severe lesions).

Series [3] relates to HSV. The following applies: U.S. Pat. No. 4,757,088; cited from earlier work.
In another series the test system is HSV-1. The following applies: U.S. Pat. No. 4,757,088; cited from earlier work.
Another series relates to herpes virus. The following applies: U.S. Pat. No. 4,757,088; cited from earlier work.
Another series concerns HSV-2. The following applies: U.S. Pat. No. 4,757,088; cited from earlier work.
Series [4] has as its system HSV. The following applies: added to lidocaine or lidocaine hydrochloride; U.S. Pat. No. 4,757,088; cited from earlier work.
Setting [5] is: HSV-2 strain MS, moi 5 pfu/cell, HeLa cells, 24 hrs, read-out: ANTI-HSV ACTIVITY HSV-β-GAL ASSAY IC50.

Molecules are shown by their SMILES. Several values for one entry are separate records, joined by “and”; a condition that tells them apart may be missing. Equal values may be shown once. Read-outs that look alike come from different tables or passages of the source.

In the case of `Cn1cccc1C(=O)Oc1c(OC(=O)c2cccn2C)c2ccccc2n(C)c1=O` [Formula 1.4], the CC50 at 24 h in series [1] is greater than 100 µg/mL.

Consider `COc1c(OC)c2ccccc2n(C)c1=O` [Formula 1.11], for which the IC50 in the series with HSV-2 (strain MS) (setting [5]) was 25 µg/mL. In addition, the CC50 at 24 h in series [1] is greater than 100 µg/mL.

For `Cn1c(=O)c(OC(=O)c2cccs2)c(OC(=O)c2cccs2)c2ccccc21` [Formula 1.8], the IC50 in the series on HSV-2 (strain MS) (setting [5]) turned out to be 19 µg/mL. For the same molecule, the CC50 at 24 h in series [1] is greater than 50 µg/mL.

With `CCCCCCCn1c(=O)c(O)c(O)c2ccccc21` [Formula 1.3], in the series with CMV (strain Towne), the “ANTI-CMV ACTIVITY CMV-β-Gal ASSAY IC50” value is 9 µg/mL. Also, the IC50 with CMV (strain Towne) is 13 µg/mL; in the series with HSV-2 (strain MS) (setting [5]), less than 3 µg/mL. In addition, the CC50 in [2] was 25 µg/mL. The “ANTI-HSV ACTIVITY HSV-β-GAL ASSAY IC50” value in the series with HSV-2 (strain MS) (HSV-2 strain MS, moi 5 pfu/cell, HeLa cells, 24 hrs) is 2 µg/mL and 3 µg/mL. In addition, the “CYTOTOXICITY ^3 H-LEU ASSAY IC50” value with HeLa cells was 30 µg/mL. The CC50 at 24 h in series [1] worked out at 37 µg/mL.

On to `Cn1c(=O)c(OC(=O)c2ccc[nH]2)c(OC(=O)c2ccc[nH]2)c2ccccc21` [Formula 1.5], for which the CC50 at 24 h in series [1] was found to be 28 µg/mL.

For `Cn1c(=O)c(O)c(O)c2ccccc21` [Formula 1.1], the “ANTI-CMV ACTIVITY CMV-β-Gal ASSAY IC50” value with CMV (strain Towne) is 1 µg/mL. Also, the IC50 with CMV (strain Towne) was 1.5 µg/mL; in the series on HSV-2 (strain MS) (read-out: ANTI-HSV ACTIVITY HSV-β-GAL ASSAY IC50, HSV-2 strain MS, moi 5 pfu/cell, HeLa cells, 24 hrs), less than 3 µg/mL. In addition, in series [2], the CC50 turned out to be 36 µg/mL. In addition, the “In-vivo anti-HSV activity” value in the series with HSV-2, strain MS was “inactive”. Also, the CC50 at 24 h in series [1] was 21 µg/mL.

Turning to `CCN(CC)CC(=O)Nc1c(C)cccc1C` [lidocaine, 2-(diethylamino)-N-(2,6-dimethylphenyl)acetamide], in the series with HSV [3], the “treatment of HSV oral and genital lesions in humans” value was “particularly effective”. Moreover, in the series on HSV-1, the “antiviral activity in cell culture against HSV-1” value was “antiviral agent”. Moreover, the “treatment of herpes virus infections of mammals” value in the series with herpes virus was “able to treat herpes virus infections of mammals”. The “antiviral activity in cell culture against HSV-2” value in the series with HSV-2 is “antiviral agent”.

On to `CC(C)(CO)[C@@H](O)C(=O)NCCCO` [dexpanthenol], for which, in the series on HSV [4], the “effect of addition to lidocaine or lidocaine hydrochloride on their antiviral activity” value is “significantly enhances the antiviral activity”.

In the case of `O=c1c(O)c(O)c2ccccc2n1Cc1ccccc1` [Formula 1.2], the CC50 at 24 h in [1] was determined as 32 µg/mL.

Consider `CCC(=O)Oc1c(OC(=O)CC)c2ccccc2n(C)c1=O` [Formula 1.10], for which, in the series on HSV-2 (strain MS) (setting [5]), the IC50 came out at 17 µg/mL. In series [1], the CC50 at 24 h stood at 34 µg/mL.

Consider `CC(C)(CO)[C@@H](O)C(=O)NCCC(=O)O` [pantothenic acid], for which the “effect of addition to lidocaine or lidocaine hydrochloride on their antiviral activity” value with HSV [4] is on record as “significantly enhances the antiviral activity”.

As to `Cn1c(=O)c(OC(=O)c2ccccc2)c(OC(=O)c2ccccc2)c2ccccc21` [Formula 1.9], the IC50 with HSV-2 (strain MS) (setting [5]) was determined as 20 µg/mL. Also, the CC50 at 24 h in series [1] was 58 µg/mL.

On to `Cn1c(=O)c(OC(=O)c2ccc(Br)o2)c(OC(=O)c2ccc(Br)o2)c2ccccc21` [Formula 1.7], for which the IC50 in the series on HSV-2 (strain MS) (setting [5]) was determined as 10 µg/mL. In series [1], the CC50 at 24 h is greater than 50 µg/mL.

In the case of `O=c1c(O)c(O)c2ccccc2n1-c1ccccc1` [Formula 1.6], the IC50 in the series with HSV-2 (strain MS) (setting [5]) is 9 µg/mL. For the same molecule, in series [1], the CC50 at 24 h was 8 µg/mL.
